According to patent US12403151B2, “Compositions for use in the promotion of intestinal muscle growth and development and associated intestinal motility” (SOCIETE DES PRODUITS NESTLE S.A., priority 2017, dated 2025):
Entries after “also recorded” stand apart in the source; their conditions may differ.

Tested on: muscle layer of the ileum
Assay: Thickness of the muscle layer of the ileum in young IUGR rats supplemented with HMOs
Type: in vivo, Sprague-Dawley rats
Details: IUGR rat pups; 3 g/kg body weight HMO by gavage d7 to d21, then 4.5% HMO in diet d22 to d57 (mix: LNnT:2FL 1:2 by weight, 1.5% + 3%); sacrificed at day 57; H&E histology; compared with Normal and IUGR control groups
Text: Three groups of time-mated pregnant Sprague-Dawley female rats were bought from Charles River laboratories. One group was submitted to food restriction of 60% during the last 10 days of gestation and their offspring were cross-fostered to normally fed rats. A second group of pregnant females was normally fed and their offspring cross-fostered among the same group of dams. Immediately after birth (postnatal day 2 (d=2)), the born rat pups—subjects of the experiment—were assigned to one of the following groups: • Normal group (positive control): Normal-weight offspring born from unrestricted dams and fed after birth a normal non-supplemented diet; • IUGR group (negative control; n=20): IUGR rats being fed a normal diet after birth; • IUGR rats+HMO (test groups): During the experiment, they were reared by their mothers for 21 days and supplemented with HMOs (2-FL, LNnT or the Mix of 2-FL and LNnT). At weaning, they were fed a diet supplemented with the same HMOs, see details below. […]
Rats were sacrificed at day 57 after a 6-hr fasting period and samples of the small intestine were collected. The thickness of the muscle layer was measured on a sample of the ileum. […]

| Molecule | thickness of the muscle layer of the ileum (mean per group, FIG. 1) |
| --- | --- |
| 2′-fucosyllactose [2FL, reference compound] | no increase in intestinal muscle thickness |
| CC(=O)N[C@H]1[C@H](O[C@H]2[C@@H](O)[C@@H](CO)O[C@@H](O[C@H]3[C@H](O)[C@@H](O)C(O)O[C@@H]3CO)[C@@H]2O)O[C@H](CO)[C@@H](O[C@@H]2O[C@H](CO)[C@H](O)[C@H](O)[C@H]2O)[C@@H]1O (mixture of isomers) [LNnT, lacto-N-neotetraose] | successful in increasing the thickness; also recorded: increase of the ileum muscle thickness over both the Normal and the IUGR groups |
